Where a SMILES comes first, the peptide text is derived from it. Bridges are numbered along the chain shown (N, C = ends).
Assay: Solubility of the ingredient in water (description)
Type: physicochemical
Conditions: white fluffy powder

Compound: CC(C)C[C@H](NC(=O)[C@H](CCCCN)NC(=O)CNC(=O)[C@H](CC(C)C)NC(=O)[C@@H](NC(=O)[C@@H]1CSSC[C@H](N)C(=O)N[C@@H](CO)C(=O)N[C@@H](CC(N)=O)C(=O)N[C@@H](CC(C)C)C(=O)N[C@@H](CO)C(=O)N[C@@H]([C@@H](C)O)C(=O)N1)C(C)C)C(=O)N[C@@H](CO)C(=O)N[C@@H](CCC(N)=O)C(=O)N[C@@H](CCC(=O)O)C(=O)N[C@@H](CC(C)C)C(=O)N[C@@H](Cc1c[nH]cn1)C(=O)N[C@@H](CCCCN)C(=O)N[C@@H](CC(C)C)C(=O)N[C@@H](CCC(N)=O)C(=O)N[C@H](C(=O)N[C@@H](Cc1ccc(O)cc1)C(=O)N1CCC[C@H]1C(=O)N[C@@H](CCCNC(=N)N)C(=O)N[C@H](C(=O)N[C@@H](CC(=O)O)C(=O)N[C@H](C(=O)NCC(=O)N[C@@H](C)C(=O)NCC(=O)N[C@H](C(=O)N1CCC[C@H]1C(N)=O)[C@@H](C)O)C(C)C)[C@@H](C)O)[C@@H](C)O [eel calcitonin, eel calcitonin (synthetic)] (H-CSNLSTCVLGKLSQELHKLQTYPRTDVGAGTP-NH2; disulfide 1-7)
- Solubility in water: easily soluble in water

— patent publication US5310727A, “Pharmaceutical compositions for parenteral use containing a calcitonin as the active ingredient” (Scalvo S.p.A., priority 1986, dated 1994)
